# Patent US20070123571A1, “Use of a compound in the treatment of sleep disorders” (priority 2003, published 2007)
# Counter-ions that a name gives are not always drawn.
# What was measured:
# [1] = single doses 10 mg or 20 mg sustained release at bedtime, volunteers, compared with placebo; cited from earlier work
# [2] = Loughborough sleep log, morning log: awoke refreshed / quality of sleep responses; assay type: in vivo, human
# Description: Typically, the percentage of individuals who, after taking a dose of triprolidine before sleeptime, wake refreshed after sleeping is in the range 1-100%, more typically, 5-70%, most typically 10-35%. An especially typical range as aforesaid is 15-30% or even more especially 20-30%. Typically, by the terms “waking refreshed” or “wake refreshed” is meant that an individual felt at least refreshed on waking, preferably, the terms are defined as the individual felt very refreshed or refreshed in accordance with the Loughborough sleep log.
# The degree of refreshedness and quality of sleep may be determined by the “morning” log of the Loughborough sleep log with the highest degree of refreshedness or quality of sleep being represented as 1 and the lowest being represented as 5. Accordingly, the percentage increase in refreshedness or quality of sleep is measured in this context by the decrease in the mean refreshedness or quality of sleep.
# Preferably, by the use of the present invention, the response of awakening very refreshed or refreshed, as determined, for instance, by the morning log of the Loughborough sleep log, is improved by at least 20%, more preferably, by at least, 30%, most preferably by at least 40%, as compared with an equivalent dose of placebo.
# Preferably, by the use of the present invention, the response of sleeping extremely well or very well, as determined, for instance, in accordance with the morning log of the Loughborough sleep log, is improved by at least 20%, more preferably, at least, 35%, most preferably at least 50%, as compared with an equivalent dose of placebo.
# Preferably, by the use of the present invention, the response of sleeping extremely well or very well, as determined, for instance, in accordance with the morning log of the Loughborough sleep log, is found for at least 20% of individuals, more preferably, at least 25%, most preferably, at least 30%. For example over 35% of individuals had such a response.
# [3] = Karolinska 9-point scale: alertness / sleepiness on waking; assay type: in vivo, human
# Description: By the term felt alert is meant that an individual felt at least alert on waking. Preferably, the term is defined as the individual felt alert, very alert or extremely alert in accordance with the Karolinska 9-point scale. By the term felt sleepy is meant that an individual felt sleepy on waking. Preferably, the term is defined as the individual felt sleepy or very sleepy in accordance with points 8 or 9 of the Karolinska 9-point scale. Preferably, by the use of the present invention, the response of feeling extremely alert, very alert or alert as determined, for instance, in accordance with the Karolinska 9-point scale, is improved by at least 2%, more preferably, by at least, 5%, most preferably by at least 10%, as compared with an equivalent dose of placebo. Preferably, by the use of the present invention, the response of feeling sleepy and needing to make some effort to stay awake or very sleepy, as determined, for instance, in accordance with points 8 and 9 of the Karolinska 9 point scale, is improved (i.e. decreased) by at least 2%, more preferably, by at least, 4%, most preferably, by at least 10%, as compared with an equivalent dose of placebo.
smiles,measurement,setting,value
Cc1ccc(/C(=C\CN2CCCC2)c2ccccn2)cc1 [TRP•HCl•H2O],sleep onset latency (time required to fall asleep),[1],did not significantly alter
same,total sleep time,[1],no effect
same,wakefulness during sleep,[1],no effect
same,Loughborough Sleep Log: Awoke Very Refreshed or Refreshed Responses,"[2]; 2.5 mg dose, Monday",23%
same,Loughborough Sleep Log: Last Night I Slept Extremely Well or Very Well Responses,"[2]; 2.5 mg dose, Monday",41.4%
same,Loughborough Sleep Log: Awoke Very Refreshed or Refreshed Responses,"[2]; 2.5 mg dose, Tuesday",23%
same,Loughborough Sleep Log: Last Night I Slept Extremely Well or Very Well Responses,"[2]; 2.5 mg dose, Tuesday",41.8%
same,Loughborough Sleep Log: Awoke Very Refreshed or Refreshed Responses,"[2]; 2.5 mg dose, Wednesday",25.8%
same,Loughborough Sleep Log: Last Night I Slept Extremely Well or Very Well Responses,"[2]; 2.5 mg dose, Wednesday",37.9%
same,Loughborough Sleep Log: Awoke Very Refreshed or Refreshed Responses,"[2]; 5 mg dose, Monday",11.5%
same,Loughborough Sleep Log: Last Night I Slept Extremely Well or Very Well Responses,"[2]; 5 mg dose, Monday",50.9%
same,Loughborough Sleep Log: Awoke Very Refreshed or Refreshed Responses,"[2]; 5 mg dose, Tuesday",8.2%
same,Loughborough Sleep Log: Last Night I Slept Extremely Well or Very Well Responses,"[2]; 5 mg dose, Tuesday",28.8%
same,Loughborough Sleep Log: Awoke Very Refreshed or Refreshed Responses,"[2]; 5 mg dose, Wednesday",14.8%
same,Loughborough Sleep Log: Last Night I Slept Extremely Well or Very Well Responses,"[2]; 5 mg dose, Wednesday",39.3%
same,"(b) I feel (i) sleepy, [and need to make] some effort or (ii) very sleepy, a great effort to keep awake","[3]; 2.5 mg dose, Monday",11.5%
same,"Karolinska 9-point scale (a) I feel extremely alert, very alert or alert","[3]; 2.5 mg dose, Monday",21.3%
same,"(b) I feel (i) sleepy, [and need to make] some effort or (ii) very sleepy, a great effort to keep awake","[3]; 2.5 mg dose, Tuesday",13.1%
same,"Karolinska 9-point scale (a) I feel extremely alert, very alert or alert","[3]; 2.5 mg dose, Tuesday",21.3%
same,"(b) I feel (i) sleepy, [and need to make] some effort or (ii) very sleepy, a great effort to keep awake","[3]; 2.5 mg dose, Wednesday",6.5%
same,"Karolinska 9-point scale (a) I feel extremely alert, very alert or alert","[3]; 2.5 mg dose, Wednesday",21.0%
same,"(b) I feel (i) sleepy, [and need to make] some effort or (ii) very sleepy, a great effort to keep awake","[3]; 5 mg dose, Monday",12.5%
same,"Karolinska 9-point scale (a) I feel extremely alert, very alert or alert","[3]; 5 mg dose, Monday",6.3%
same,"(b) I feel (i) sleepy, [and need to make] some effort or (ii) very sleepy, a great effort to keep awake","[3]; 5 mg dose, Tuesday",17.5%
same,"Karolinska 9-point scale (a) I feel extremely alert, very alert or alert","[3]; 5 mg dose, Tuesday",9.5%
same,"(b) I feel (i) sleepy, [and need to make] some effort or (ii) very sleepy, a great effort to keep awake","[3]; 5 mg dose, Wednesday",12.7%
same,"Karolinska 9-point scale (a) I feel extremely alert, very alert or alert","[3]; 5 mg dose, Wednesday",17.5%
